Assay results published in patent US20220119825A1, “SCALABLE PEPTIDE-GPCR INT[…] SYSTEMS” (THE TRUSTEES OF COLUMBIA UNIVERSITY IN THE CITY OF NEW YORK, priority 2019, published 2022).
Read-outs that look alike come from different tables or passages of the source. Ends that are not written are not given here. Peptide text beside a SMILES is read from it.

T1: Bb.Ste2, Ste2-like mating GPCR of Beauvaria bassiana (Beauvaria bassiana)
T1 chain: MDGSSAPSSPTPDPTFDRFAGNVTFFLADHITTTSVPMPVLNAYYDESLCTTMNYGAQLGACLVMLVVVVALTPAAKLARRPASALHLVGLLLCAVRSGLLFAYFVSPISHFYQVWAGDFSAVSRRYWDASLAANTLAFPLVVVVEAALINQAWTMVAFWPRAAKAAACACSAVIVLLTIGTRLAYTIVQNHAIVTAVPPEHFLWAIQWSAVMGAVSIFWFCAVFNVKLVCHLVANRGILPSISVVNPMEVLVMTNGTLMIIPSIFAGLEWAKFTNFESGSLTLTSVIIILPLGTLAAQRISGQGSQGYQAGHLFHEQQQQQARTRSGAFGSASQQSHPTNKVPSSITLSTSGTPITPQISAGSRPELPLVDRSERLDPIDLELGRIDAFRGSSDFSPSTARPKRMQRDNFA

T2: Le.Ste2, Ste2-like mating GPCR of Lodderomyces elongisporous (Lodderomyces elongisporous)
T2 chain: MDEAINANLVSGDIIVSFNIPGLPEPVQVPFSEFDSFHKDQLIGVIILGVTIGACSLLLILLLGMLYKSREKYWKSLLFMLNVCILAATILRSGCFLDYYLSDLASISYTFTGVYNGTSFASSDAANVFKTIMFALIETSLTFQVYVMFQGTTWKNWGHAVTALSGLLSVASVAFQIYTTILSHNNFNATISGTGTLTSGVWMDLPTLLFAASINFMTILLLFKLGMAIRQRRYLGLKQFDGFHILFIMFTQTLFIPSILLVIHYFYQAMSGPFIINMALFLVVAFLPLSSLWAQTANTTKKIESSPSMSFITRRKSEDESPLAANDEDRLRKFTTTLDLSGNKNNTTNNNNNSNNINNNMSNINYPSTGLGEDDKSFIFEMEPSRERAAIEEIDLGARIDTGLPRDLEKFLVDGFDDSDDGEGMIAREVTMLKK

T3: Bc.Ste2, Ste2-like mating GPCR of Botrytis cinerea (Botrytis cinerea)
T3 chain: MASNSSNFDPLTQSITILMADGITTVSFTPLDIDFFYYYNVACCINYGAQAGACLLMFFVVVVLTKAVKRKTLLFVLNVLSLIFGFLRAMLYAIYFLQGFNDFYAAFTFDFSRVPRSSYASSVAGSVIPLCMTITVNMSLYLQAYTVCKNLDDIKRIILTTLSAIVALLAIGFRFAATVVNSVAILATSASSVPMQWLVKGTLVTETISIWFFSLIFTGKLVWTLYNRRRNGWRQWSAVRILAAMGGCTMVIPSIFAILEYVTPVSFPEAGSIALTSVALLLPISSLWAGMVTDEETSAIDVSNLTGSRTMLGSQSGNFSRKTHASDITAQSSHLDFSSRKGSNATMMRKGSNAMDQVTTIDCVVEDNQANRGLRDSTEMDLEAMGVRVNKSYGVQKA

T4: Hj.Ste2, Ste2-like mating GPCR of Hypocrea jecorina (Hypocrea jecorina)
T4 chain: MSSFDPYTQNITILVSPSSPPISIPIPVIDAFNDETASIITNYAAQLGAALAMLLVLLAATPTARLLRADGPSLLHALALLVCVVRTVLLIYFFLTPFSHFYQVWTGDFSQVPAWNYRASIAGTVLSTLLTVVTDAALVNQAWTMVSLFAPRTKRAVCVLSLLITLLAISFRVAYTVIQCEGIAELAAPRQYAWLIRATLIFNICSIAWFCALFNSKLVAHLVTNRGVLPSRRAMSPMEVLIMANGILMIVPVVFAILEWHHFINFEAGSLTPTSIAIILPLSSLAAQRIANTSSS

B1: She. Ste2: genome-mined mating GPCR activated by near-cognate peptide with two additional N-terminal residues (protein)
chain: MKPAAGPASSPFDPFNQTFYLTGPDNTTVPVSVPQVDYIWHYIIGTSINYGSQIGACLLMLLVMLTLTSKSRFSRAATLINVASLLIGVIRCVLLAVYFTSSLTELYALFVGDYSQVRRSDLCVSAVATFFSLPQLVLIEAALFLQAYSMIKMWPSLWRAVVLAMSVVVAVCAIGFKFASVVMRMRSTLTLDDSLDFWLVEVDLAFTATTIFWFCFIYIIRLVIHMWEYRSILPPMGSVSAMEVLVMTNGALMLVPVIFAAIEINGLSSFESGSLVHTSVIVLLPLGSLIAQAMTRPDGYVQRTNTSGASGASGAHPGRNGSGHGGHGGAYSRAMTNTLNTLDTLDTVDSKTSIMHHHHHHHRNHSNGMSKTKANSGTWSHASDANSTNAMISGGIATQVRIQANQSTLGNTGMSGGSGAPNSHTRNNSLAAMEPVEKQLHDIDATPLSASDCRVWVDREVEVRRDMV

Experiments:
[1] = system: Ste2-like fungal mating GPCRs expressed in S. cerevisiae; experiment: GPCR on-off activity and dose response assay (FUS1 promoter coRFP fluorescent reporter, strain JTy014, synthetic peptide ligand); format: cell-based, Ascomycete fungi (expressed in S. cerevisiae); parameters: EC50: unit: log10 M; conditions: for Hill Slope: Hill slope of 4-parameter fit; for Bttm: bottom of 4-parameter fit of the fluorescence dose response curve (basal activation); for Fold Change: fold-change activation from Top and Bttm of the fit; for Span: span of 4-parameter fit of the fluorescence dose response curve; for Top: top of 4-parameter fit of the fluorescence dose response curve (maximal activation)
Description: GPCR on-off activity and dose response assay. GPCR activity and response to increasing dosage of synthetic peptide ligand was measured in strain JTy014 using the genomically integrated FUS1-promoter controlled coRFP as a fluorescent reporter. JTy014 strains carrying the appropriate GPCR expression plasmid were assayed in 96-well microtiter plates using 200 μl total volume, cultured at 30° C. and 800 RPM. Cells were seeded at an A600 of 0.3 (Note: all herein reported cell density values are based on A600 measurements in 96-well plates of a 200 μl volume of cultures with a path length of ˜0.3 cm performed in an Infinite M200 plate reader from Tecan) in SC media lacking uracil (selective component). All measurements were performed in triplicates. RFP fluorescence (excitation: 588 nm, emission: 620 nm) and culture turbidity (A600) were measured after 8 hours using an Infinite M200 plate reader (Tecan). Since the optical density values were outside the linear range of the photodetector, all optical density values were first corrected using the following formula to give true optical density values: […]
where Ameas is the measured optical density, Asat is the saturation value of the photodetector and k is the true optical density at which the detector reaches half saturation of the measured optical density^36. Dose-response was measured at different concentrations (11 five-fold dilutions in H2O starting at 40 μM peptide, H2O was used as “no peptide” control) of the appropriate synthetic peptide ligand. All fluorescence values were normalized by the A600, and plotted against the log(10)-converted peptide concentrations. Data were fit to a four-parameter non-linear regression model using Prism (GraphPad) in order to extract GPCR-specific values for basal activation, maximal activation, EC50 and the Hill coefficient. Fold-activation was calculated for each GPCR as the maximum A600-normalized fluorescence of peptide-treated cells divided by the A600 normalized fluorescence value of water-treated cells.

[2] = target: T1, Bb.Ste2, Ste2-like mating GPCR of …; experiment: cell-based or functional assay
[3] = target: T2, Le.Ste2, Ste2-like mating GPCR of …; experiment: cell-based or functional assay
[4] = target: T3, Bc.Ste2, Ste2-like mating GPCR of …; experiment: cell-based or functional assay
[5] = target: T4, Hj.Ste2, Ste2-like mating GPCR of …; experiment: cell-based or functional assay
[6] = peptide/GPCR pair, synthetic cognate peptide, fluorescence read-out, 4-parameter fit of dose response curves (FIG. 6), values given as negative (log) numbers

Molecule | Hill Slope [1] | Bttm [1] | Fold Change [1] | EC50 [1, 6] | Span [1] | Top [1] | further results
H-WSWITLRPGQPIF-OH [Kl] | 0.8 | 37.2 | 6.0 | −7.3 | 185.9 | 223.1 | 
H-NWHWLRLDPGQPLY-OH [Sca] | 0.7 | 24.3 | 6.4 | −8.1 | 131.1 | 155.4 | 
H-KPHWTTYGYYEPQ-OH [Cp] | 0.8 | 36.2 | 7.0 | −8.5 | 217.8 | 254.0 | 
S. cerevisiae Ste2: natural S. cerevisiae mating GPCR; value is its sensitivity to its cognate peptide ligand |  |  |  |  |  |  | EC50 ([1]; cognate synthetic peptide, fluorescence/A600 after 8 hours, four-parameter fit, read-out: EC50 (sensitivity of the GPCR for its cognate ligand)): 1.25 nM
FSWNYRLKWQPIS [Cn] | 1.1 | 29.7 | 5.1 | −7.4 | 122.5 | 152.2 | 
H-KFKFRLTRYGWFSPN-OH [Ct] | 1.2 | 32.0 | 5.2 | −8.2 | 134.6 | 166.7 | 
NCCCC[C@H](NC(=O)[C@H](Cc1c[nH]c2ccccc12)NC(=O)[C@H](Cc1c[nH]c2ccccc12)NC(=O)[C@H](CS)NC(=O)[C@@H](N)Cc1c[nH]c2ccccc12)C(=O)NCC(=O)N[C@@H](CCC(N)=O)C(=O)N1CCC[C@H]1C(=O)N[C@@H](CS)C(=O)N[C@@H](Cc1c[nH]c2ccccc12)C(=O)O [Fg] (H-WCWWKGQPCW-OH) | 1.3 | 29.2 | 8.0 | −7.1 | 203.0 | 232.2 | 
H-KWGWLRFFPGEPFV-OH [Cau] | 0.8 | 50.6 | 6.7 | −8.1 | 286.3 | 336.9 | 
H-WHWVRLRKGQGLF-OH [Cg] | 2.4 | 30.5 | 7.0 | −5.9 | 183.0 | 213.6 | 
CC[C@H](C)[C@H](NC(=O)[C@H](Cc1c[nH]c2ccccc12)NC(=O)CN)C(=O)NCC(=O)N[C@@H](CCCNC(=N)N)C(=O)N[C@@H](CS)C(=O)NCC(=O)N[C@H](C(=O)N1CCC[C@H]1C(=O)NCC(=O)N[C@@H](CO)C(=O)N[C@@H](CO)C(=O)N[C@@H](CS)C(=O)O)C(C)C [Bm] (H-GWIGRCGVPGSSC-OH; N-terminus and C-terminus assumed) | 1.2 | 30.3 | 5.2 | −6.7 | 128.4 | 158.8 | 
WCMRPGQPCW [Bb peptide ligand #1 WCMRPGQPCW] |  |  |  |  |  |  | Bttm (FUS1p-RFP reporter) [2]: 25.2 fluorescence/A600 (not printed); EC50 (FUS1p-RFP reporter) [2]: -8.5 log10 M (not printed); Fold Change (FUS1p-RFP reporter) [2]: 9.7 fold; Span (FUS1p-RFP reporter) [2]: 219 fluorescence/A600 (not printed); Top (FUS1p-RFP reporter) [2]: 244 fluorescence/A600 (not printed)
WMWTRYGRFSPV [Le peptide ligand #1 WMWTRYGRFSPV] |  |  |  |  |  |  | Bttm (FUS1p-RFP reporter) [3]: 22.9 fluorescence/A600 (not printed); EC50 (FUS1p-RFP reporter) [3]: -7.7 log10 M (not printed); Fold Change (FUS1p-RFP reporter) [3]: 18 fold; Span (FUS1p-RFP reporter) [3]: 390 fluorescence/A600 (not printed); Top (FUS1p-RFP reporter) [3]: 412 fluorescence/A600 (not printed)
WCGRPGQPC [Bc peptide ligand #1 WCGRPGQPC] |  |  |  |  |  |  | Bttm (FUS1p-RFP reporter) [4]: 28.6 fluorescence/A600 (not printed); EC50 (FUS1p-RFP reporter) [4]: -8.1 log10 M (not printed); Fold Change (FUS1p-RFP reporter) [4]: 12.3 fold; Span (FUS1p-RFP reporter) [4]: 323 fluorescence/A600 (not printed); Top (FUS1p-RFP reporter) [4]: 352 fluorescence/A600 (not printed)
WCYRIGEPCW (modifications not checked) [Hj peptide ligand #1 (Table 3: …)] |  |  |  |  |  |  | Bttm (FUS1p-RFP reporter) (fluorescence/A600 (not given)) [5]: 53; EC50 (FUS1p-RFP reporter) (log10 M (not given)) [5]: -7.8; Fold Change (FUS1p-RFP reporter) [5]: 8.1 fold; Span (FUS1p-RFP reporter) (fluorescence/A600 (not given)) [5]: 376; Top (FUS1p-RFP reporter) (fluorescence/A600 (not given)) [5]: 430
B1 |  |  |  |  |  |  | activation by alternative near-cognate peptide ligand candidates ([1]; 40 μM synthetic peptide ligand, 8 hours): can be activated
